# According to US20120184493A1, “DERMAL FORMULATIONS OF DP2 RECEPTOR ANTAGONISTS” (PANMIRA PHARMACEEUTICALS, LLC, priority 2009, published 2012):
# Experiments:
# [1] = molecular target: T1, human DP2 receptor (Homo sapiens, UniProt Q9Y5Y4); assay: DP2/CRTH2 radioligand binding assay using [3H]PGD2; conditions: membranes of HEK293 cells expressing recombinant human DP2, 1 nM [3H]PGD2; read-out: hDP2
# T1 construct: expressed in transfected cells
# T1 sequence (Q9Y5Y4 1-395): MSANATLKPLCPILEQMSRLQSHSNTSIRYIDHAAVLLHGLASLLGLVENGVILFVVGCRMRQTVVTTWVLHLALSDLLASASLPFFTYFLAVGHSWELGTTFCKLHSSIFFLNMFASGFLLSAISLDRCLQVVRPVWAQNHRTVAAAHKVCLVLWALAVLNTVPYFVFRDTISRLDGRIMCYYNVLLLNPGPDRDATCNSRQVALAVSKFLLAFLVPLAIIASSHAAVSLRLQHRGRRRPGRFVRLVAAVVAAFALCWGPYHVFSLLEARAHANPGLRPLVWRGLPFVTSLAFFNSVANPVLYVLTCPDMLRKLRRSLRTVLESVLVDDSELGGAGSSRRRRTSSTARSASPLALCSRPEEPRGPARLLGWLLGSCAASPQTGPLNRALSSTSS
# Description: The ability of a compound to bind to the human DP2 receptor is assessed via a radioligand binding assay using [^3H]PGD2. HEK293 cells stably expressing recombinant human DP2 are resuspended in 10 mM Hepes, 7.4 containing 1 mM DTT, lysed and centrifuged at 75,000×g to pellet the membranes. The membranes are resuspended in 10 mM Hepes, 7.4 containing 1 mM DTT and 10% glycerol to approximately 5 mg protein/ml. Membranes (2-10 μg protein/well) are incubated in 96-well plates with 1 nM [^3H]PGD2 and test compound in Assay Buffer (50 mM Hepes, 10 mM MnCl2, 1 mM EDTA, plus or minus 0.2% human serum albumin, pH 7.4) for 60 minutes at room temperature. The reactions are terminated by rapid filtration through Whatman GF/C glass fibre filter plates. The filter plates were pre-soaked in 0.33% polythylenimine for 30 minutes at room temperature then washed in Wash Buffer (50 mM Hepes, 0.5 M NaCl pH 7.4) prior to harvesting. After harvesting, the filter plates are washed 3 times with 1 ml cold Wash Buffer then dried. Scintillant is then added to the plates and the radioactivity retained on the filters is determined on a Packard TopCount (Perkin Elmer). Specific binding is determined as total radioactive binding minus non-specific binding in the presence of 10 μM PGD2. IC50s were determined using GraphPad prism analysis of drug titration curves.
# [2] = molecular target: T2, human DP1 receptor (Homo sapiens, UniProt Q13258); assay: DP1 radioligand membrane binding assay using [3H]BWA868C; conditions: human platelet membranes, 2 nM [3H]BWA868C; read-out: hDP1
# T2 construct: tissue Biological Specialty Corporation; host or cells: human platelets, membrane preparation
# T2 sequence (Q13258 1-359): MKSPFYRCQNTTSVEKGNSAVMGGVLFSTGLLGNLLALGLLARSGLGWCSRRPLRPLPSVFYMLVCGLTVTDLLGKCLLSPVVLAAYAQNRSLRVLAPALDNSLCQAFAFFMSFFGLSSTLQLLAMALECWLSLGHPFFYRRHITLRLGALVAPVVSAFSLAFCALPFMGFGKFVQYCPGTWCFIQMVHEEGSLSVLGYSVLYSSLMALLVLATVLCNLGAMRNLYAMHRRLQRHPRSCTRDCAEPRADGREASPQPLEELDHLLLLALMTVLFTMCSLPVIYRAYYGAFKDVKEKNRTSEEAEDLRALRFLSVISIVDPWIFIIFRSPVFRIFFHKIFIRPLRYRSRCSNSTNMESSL
# Description: The ability of a compound to bind to the human DP1 receptor was evaluated via a radioligand membrane binding assay using the DP1 selective synthetic ligand [^3H]BWA868C. Packed human platelets (Biological Specialty Corporation), were resuspended in 6 volumes of Hepes/HBSS buffer (10 mM Hepes, 1 mM DTT in Hanks Balanced Salt Solution (HBSS)), lysed and centrifuged at 75,000×g to pellet the membranes. Membranes were resuspended in Hepes/HBSS buffer to approximately 12 mg protein/ml. Membranes (20 μg protein/well) are incubated in 96-well plates with 2 nM [^3H]BWA868C and test compound in Assay Buffer (50 mM Hepes, 10 mM MnCl2, 1 mM EDTA, plus or minus 0.2% human serum albumin, pH 7.4) for 60 minutes at room temperature. The reactions are terminated by rapid filtration through Whatman GF/C glass fibre filter plates. The filter plates were pre-soaked in 0.33% polethylenimine for 30 minutes at room temperature then washed in Wash Buffer (50 mM Hepes, 0.5 M NaCl pH 7.4) prior to harvesting. After harvesting, the filter plates are washed 3 times with 1 ml cold Wash Buffer then dried. Scintillant is then added to the plates and the radioactivity retained on the filters is determined on a Packard TopCount (Perkin Elmer). Specific binding is determined as total radioactive binding minus non-specific binding in the presence of 10 μM BW A868C. IC50s were determined using GraphPad prism analysis of drug titration curves.
IC50 [1],IC50 [2],Structure (SMILES)
< 0.3 µM,> 1 µM,CCN(Cc1cc(C(F)(F)F)ccc1-c1cncc(CC(=O)O)c1)C(=O)OCc1ccccc1 [(5-{2-[(N-benzyloxycarbonyl-N-ethyl-amino)-methyl]-4-trifluoromethyl-phenyl}-pyridin-3-yl)-acetic acid]
,> 1 µM,CCOc1ccc(-c2ccc(-c3cc(CC(=O)O)ccc3OC)c(CN(CC)C(=O)C3CC3)c2)cn1 [[2′-[(N-cyclopropanecarbonyl-N-ethyl-amino)-methyl]-4′-(6-ethoxy-pyridin-3-yl)-6-methoxy-biphenyl-3-yl]-acetic acid]
< 0.3 µM,> 1 µM,"COc1ccc(CC(=O)O)cc1Oc1ccc(NC(=O)C(C)(C)C)cc1CSC(C)(C)C [{3-[2-tert-Butylsulfanylmethyl-4-(2,2-dimethyl-propionylamino)-phenoxy]-4-methoxy-phenyl}-acetic acid]"
< 0.3 µM,> 1 µM,"CN(C1CCc2c(c3ncccc3n2CC(=O)O)C1)S(=O)(=O)c1ccc(F)cc1 (stereo not shown) [{8-[(4-fluoro-benzenesulfonyl)-methyl-amino]-6,7,8,9-tetrahydro-pyrido[3,2-b]indol-5-yl}-acetic acid]"
